# Data: patent publication US12570673B2, “c-Myc protein inhibitor, and preparation method therefor and use thereof” (SUZHOU KINTOR PHARMACEUTICALS, INC., priority 2019, dated 2026)
# Key:
# [1] = tested on: HL60 cells; assay: Anti-cancer activity test, MTT, HL60 cells; assay type: cell-based; conditions: Homo sapiens, HL-60, culturing for 72 hours
# Procedure: (§1) Cell culture medium: Roswell medium RPMI-1640 (+L-glutamine) was added with 10% fetal bovine serum, with 100 units penicillin and 100 μg streptomycin per ml.
# (§2) Cell culture conditions: 5% CO2, 95% humidity, cultured at 37° C. constant temperature.
# (§3) 2. Cell Inoculation, Drugs Dosing and Culture.
# (§4) Logarithmic growth phase HL-60, human chronic myeloid leukemia cells (K562), human esophageal squamous cell carcinoma cells (KYSE510), human large cell lung cancer cells (H460) were inoculated into 96-well cell culture plates, 2×10^4 cells per well. Different concentrations of active compounds (dissolved in dimethyl sulfoxide (DMSO) stock solution) were added, so that the final concentration of DMSO was 0.2%, and the control group was DMSO. Each group was repeated three times.
# (§5) After culturing for 72 hours, 20 µL of thiazolyl blue (MTT) (5 mg/ml, ready for use, dissolved in 1×PBS for cell culture) was added to each well, and incubated at 37° C. for 3 hours.
# (§6) The 96-well cell culture plates were centrifuged at 1000 rpm for 10 minutes. The supernatant was discarded; 200 μL of DMSO was added to each well and the plate was shaken for 5 minutes.
# (§7) The absorbance of each well was detected at 570 nm wavelength with a microplate reader, and the IC50 of the compounds was calculated.
# [2] = molecular target: c-Myc370-412-biotin peptide (Homo sapiens (Human), UniProt P01106); assay: SPR binding affinity on c-Myc protein; conditions: c-Myc370-412-biotin peptide immobilized, 1.00×PBS-P buffer (5% DMSO)
# Procedure: 1. Experiment Preparation
# 10×PBS-P was diluted into 1.05×PBS-P buffer solution for later use. The c-Myc370-412-biotin peptide was dissolved in chromatographic pure DMSO to prepare a 1 mM stock solution. The molecules were dissolved in chromatographic pure DMSO to prepare a 10 mM stock solution. Part of 1.05×PBS-P buffer was added to chromatographic pure DMSO to prepare 1.00×PBS-P buffer (5% DMSO, ready for use).
# The highest solubility of each small molecule in the 1.00×PBS-P buffer (5% DMSO) system was tested respectively. This solubility was used as the highest concentration tested for small molecule activity.
# 2. Protein Immobilization
# The c-Myc370-412-biotin peptide stock solution was added to 1.05×PBS-P buffer to prepare a 50 μM solution, and then diluted with 1.00×PBS-P buffer (5% DMSO) to […] for protein immobilization.
# After washing the sample channel and reference channel of the chip with 1.00×PBS-P buffer (5% DMSO), an automatic mode was used to immobilize the protein in the sample channel. The target amount of the immobilized protein was 500RU. The immobilization was successful. The buffer was used continuously to flush until equilibrium.
# 3. Small Molecule Activity Test.
# Buffer was used to prepare different concentrations of small molecule compounds for sample testing. The system was 1.00×PBS-P buffer (5% DMSO). The difference was detected between the response of small molecules flowing through the sample channel and the reference channel.
# The experimental conditions were a flow rate of 30 μL/min, binding time of 120 seconds, and dissociation time of 240 seconds. After each binding and dissociation test, 50% DMSO was used to flush the tubing, and 10 mM glycine-HCl buffer (pH 2.1) was used to flush the surface of the chip to wash away the remaining compound molecules.
# [3] = molecular target: c-Myc protein (Homo sapiens (Human), UniProt P01106); assay: Degradation of c-Myc protein
# [4] = molecular target: c-Myc peptide LE40 (Homo sapiens, UniProt P01106); assay: Single-cycle binding kinetics with c-Myc peptide LE40
# [5] = molecular target: c-Myc peptide LE40 (S373A) (Homo sapiens, UniProt P01106, S373A); assay: Single-cycle binding kinetics with c-Myc peptide LE40 (S373A)
# [6] = tested on: tumor cells with high expression of c-Myc; assay: Inhibition of tumor cells with high expression of c-Myc; assay type: cell-based
# [7] = molecular target: c-Myc and Max (Homo sapiens (Human), UniProt P01106); assay: Competition for the binding of c-Myc and Max
# [8] = tested on: human esophageal squamous cell carcinoma cells (KYSE510); assay: Anti-cancer activity test, MTT, KYSE510 cells; assay type: cell-based; conditions: KYSE-510, culturing for 72 hours
# Procedure: as §1, §2, §3, §4, §5, §6, §7
# [9] = tested on: human chronic myeloid leukemia cells (K562); assay: Anti-cancer activity test, MTT, K562 cells; assay type: cell-based; conditions: culturing for 72 hours
# Procedure: as §1, §2, §3, §4, §5, §6, §7
# [10] = tested on: human large cell lung cancer cells (H460); assay: Anti-cancer activity test, MTT, H460 cells; assay type: cell-based; conditions: NCI-H460, culturing for 72 hours
# Procedure: as §1, §2, §3, §4, §5, §6, §7
# c-Myc370-412-biotin peptide, sequence (P01106 385-427): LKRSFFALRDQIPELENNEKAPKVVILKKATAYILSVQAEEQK
# c-Myc protein, sequence (P01106 whole entry): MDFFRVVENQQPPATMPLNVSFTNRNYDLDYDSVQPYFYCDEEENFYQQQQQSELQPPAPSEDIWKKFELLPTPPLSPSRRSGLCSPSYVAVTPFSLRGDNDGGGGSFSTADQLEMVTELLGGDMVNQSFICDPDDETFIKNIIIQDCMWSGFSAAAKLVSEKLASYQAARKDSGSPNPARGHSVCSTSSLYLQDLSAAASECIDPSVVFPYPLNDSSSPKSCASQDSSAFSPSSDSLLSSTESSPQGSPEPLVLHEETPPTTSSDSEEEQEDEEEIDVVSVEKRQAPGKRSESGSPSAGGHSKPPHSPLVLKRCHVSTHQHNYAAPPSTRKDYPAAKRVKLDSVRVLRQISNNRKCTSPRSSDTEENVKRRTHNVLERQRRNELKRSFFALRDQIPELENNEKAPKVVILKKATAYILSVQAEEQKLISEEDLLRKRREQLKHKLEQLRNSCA
# c-Myc and Max, sequence (P01106 whole entry): as above
Compound,IC50 [1] [nM],Kd [2] [nM],IC50 [8] [nM],IC50 [9] [nM],IC50 [10] [nM],other results
CC(C)C[C@H](NC(=O)[C@H](CSC(c1ccccc1)(c1ccccc1)c1ccccc1)NC(=O)OCC1c2ccccc2-c2ccccc21)B1O[C@@H]2C[C@@H]3C[C@@H](C3(C)C)[C@]2(C)O1 [Compound A3],500 to 2000,100 to 500,–,–,–,–
CSCC[C@H](NC(=O)OCC1c2ccccc2-c2ccccc21)C(=O)N[C@@H](CC(C)C)B1O[C@@H]2C[C@@H]3C[C@@H](C3(C)C)[C@]2(C)O1 [Compound A5],< 100,100 to 500,–,–,–,degradation of c-Myc protein [3]: promote the degradation of c-Myc protein; Kd [4]: 160 nM; binding (single-cycle binding kinetic curve) [5]: no obvious binding
CC(C)C[C@H](NC(=O)[C@H](Cc1cn(C(c2ccccc2)(c2ccccc2)c2ccccc2)cn1)NC(=O)OCC1c2ccccc2-c2ccccc21)B1O[C@@H]2C[C@@H]3C[C@@H](C3(C)C)[C@]2(C)O1 [Compound A4],< 100,< 100,–,–,–,–
CC(C)C[C@H](NC(=O)[C@@H](NC(=O)OCC1c2ccccc2-c2ccccc21)[C@@H](C)OC(C)(C)C)B1O[C@@H]2C[C@@H]3C[C@@H](C3(C)C)[C@]2(C)O1 [Compound A2],< 100,100 to 500,–,–,–,–

# The next lines start with results.
IC50 [1] [nM],Kd [2] [nM],IC50 [8] [nM],IC50 [9] [nM],IC50 [10] [nM],Compound,other results
< 100,< 100,–,–,–,CC(C)C[C@H](NC(=O)[C@H](CCC(=O)NC(c1ccccc1)(c1ccccc1)c1ccccc1)NC(=O)OCC1c2ccccc2-c2ccccc21)B1O[C@@H]2C[C@@H]3C[C@@H](C3(C)C)[C@]2(C)O1 [Compound A6],–
< 100,–,–,–,–,CC(C)C[C@H](NC(=O)[C@H](CCCCNC(=O)OC(C)(C)C)NC(=O)OCC1c2ccccc2-c2ccccc21)B1O[C@@H]2C[C@@H]3C[C@@H](C3(C)C)[C@]2(C)O1 [Compound A13],selective inhibition of tumor cells with high expression of c-Myc [6]: selectively inhibits tumor cells with high expression of c-Myc; degradation of c-Myc protein [3]: promote the degradation of c-Myc protein; competition for the binding of c-Myc and Max [7]: can compete for the binding of c-Myc and Max
< 100,–,< 100,< 100,< 100,CC(C)C[C@H](NC(=O)[C@H](CC(C)C)NC(=O)OCC1c2ccccc2-c2ccccc21)B1O[C@@H]2C[C@@H]3C[C@@H](C3(C)C)[C@]2(C)O1 [Compound A10],–
< 100,–,< 100,< 100,< 100,CC(C)C[C@H](NC(=O)[C@H](Cc1c[nH]c2ccccc12)NC(=O)CC1CCCC1)B(O)O [Compound A69],–
< 100,< 100,–,–,–,CC(C)C[C@H](NC(=O)[C@H](CCC(=O)OC(C)(C)C)NC(=O)OCC1c2ccccc2-c2ccccc21)B1O[C@@H]2C[C@@H]3C[C@@H](C3(C)C)[C@]2(C)O1 [Compound A7],–
< 100,–,< 100,< 100,< 100,CC(C)C[C@H](NC(=O)[C@H](CC(C)C)NC(=O)CC1c2ccccc2-c2ccccc21)B(O)O [Compound A67],–
